Data published in patent publication US4594190A, “Quaternary salts of dibenzo[1,4]diazepinones, pyrido-[1,4]benzodiazepinones, pyrido[1,5]benzodiazepinones with antiulcer, antisecretory, spasmolytic and antimusarinic activities” (priority 1983, dated 1986).

Legend:
in vivo = conditions: mouse, oral, Swiss mice, 14 days observation
Description: The acute toxicity was determined by administering by oral route the substances under exam to Swiss mice, average weight 20±2 g. The observation period was 14 days. 10 Animals were used for each assayed dose.

[1] = system: carbachole-induced salivation; test: Carbachole salivation in the rat; assay type: in vivo, rat (male Sprague-Dawley); conditions: 62.5 mg/kg p.o., one hour before carbachole 1 mg/kg i.p.
Description: CARBACHOLE SALIVATION IN THE RAT
The method cited by R. Turner: "Parasympatholytic Agents" in R. Turner "Screening Methods in Pharmacology" pag. […] Academic Press. […] Male Sprague-Dawley rats, mean weight 150±5 g, fasting since 24 hours, were used.
The salivation was induced by the intraperitoneal administration of 1 mg/kg of carbachole. The products under exam were administered orally one hour before the cholinergic stimulus.

gastric acid secretion = test: Gastric acid secretion in the pylorus ligated rat (antisecretory activity); assay type: in vivo, rat (male Sprague-Dawley); conditions: 4 hours
Description: GASTRIC ACID SECRETION IN THE PYLORUS LIGATED RAT
Male Sprague-Dawley rats weighing 150±5 g fasting since 48 hours were used. Pylorus ligation was performed for 4 hours. The products under examination were administered by the oral route immediately after the ligation.

| Compound | LD50 at 336 h (in vivo) | Salivation by carbachol- protection % [1] | % Antisecretory activity (gastric acid secretion; 6.25 mg/kg p.o.) | % Antisecretory activity (gastric acid secretion; 12.5 mg/kg p.o.) | % Antisecretory activity (gastric acid secretion; 25 mg/kg p.o.) |
| --- | --- | --- | --- | --- | --- |
| C[N+]1(C)CC[N+](C)(CC(=O)N2c3ccccc3C(=O)Nc3cccnc32)CC1 [Compound 2, 11-[2-(4-Methylpiperazin-1-yl)acetyl]-5,11-dihydro-6H-pyrido[2,3-b][1,4]benzodiazepin-6-one N^1,4 bisiodomethylate] | > 500 mg/kg | 30% | 10.3% | 15.1% | 20.4% |
| C[N+](C)(C)CC(=O)N1c2ccccc2C(=O)Nc2cccnc21 [Compound 3, 11-(2-Dimethylaminoacetyl)-5,11-dihydro-6H-pyrido-[2,3-b][1,4]-benzodiazepin-6-one iodomethylate] | < 500 mg/kg | 0% | 6.0% | 14.3% | 35.9% |
| C[N+]1(CC(=O)N2c3ccccc3C(=O)Nc3cccnc32)CCCCC1 [Compound 4, 11-[2-(Piperidin-1-yl)acetyl]-5,11-dihydro-6H-pyrido[2,3-b][1,4]benzodiazepin-6-one iodomethylate] | > 500 mg/kg | 70% | 22.7% | 48.1% | 70.3% |
| C[N+]1(CCC(=O)N2c3ccccc3C(=O)Nc3cccnc32)CCCCCC1 [Compound 13] | > 500 mg/kg | 30% | 19.2% | 47.5% | 69.6% |
| CC(C)(C)C(=O)OC[N+]1(C)CCC(C(=O)N2c3ccccc3C(=O)Nc3cccnc32)CC1 (stereo not shown) [Compound 15] | > 500 mg/kg | 10% | 9.6% | 27.7% | 41.8% |
